According to patent US7211585B2, “5-HT7 receptor antagonists” (Laboratorios del Dr. Esteve, S.A., priority 2004, dated 2007):
Structures can show the parent of a compound that is named as a salt.

Biological target: T1, Cloned Human Serotonin Receptor, subtype 7 (h5HT7) (Homo sapiens, UniProt P34969)
T1 construct: purchased PerkinElmer 6120512; host or cells: CHO cells (membranes coated on Basic FlashPlate, Cat. SMP200)
Experiment: Radioligand binding assay, cloned human 5-HT7 receptor in CHO cells, [125I]LSD, Flashplate
Conditions: h5HT7 expressed in CHO cells; [125I]LSD 0.82 nM; triplicate determinations; read-out: 5-HT7 IC-50
Protocol: Biological Assays Radioligand Binding
Radioligand binding assays were performed using the Cloned Human Serotonin Receptor, subtype 7 (h5HT7), expressed in CHO cells, coated on Flashplate (Basic FlashPlate Cat.: SMP200) from PerkinElmer (Cat.: 6120512). The protocol assay was essentially the recommended protocol in the Technical Data Sheet by PerkinEmer Life and Analytical Sciences. The Mass membrane protein/well was typically 12 μg and the Receptor/well was about 9–10 fmoles. The Flashplate were let equilibrate at room temperature for one hour before the addition of the components of the assay mixture. The binding buffer was: 50 mM Trish-CHl, pH 7.4, containing 10 mM MgCl2, 0.5 mM EDTA and 0.5% BSA. The radioligand was [^125I]LSD at a final concentration of 0.82 nM. Nonspecific binding was determined with 50 μM of Clozapine. The assay volume was 25 μl. TopSeal-A were applied onto Flashplate microplates and they were incubated at room temperature for 240 minutes in darkness. The radioactivity were quantified by liquid scintillation spectrophotometry (Wallac 1450 Microbeta Trilux) with a count delay of 4 minutes prior to counting and a counting time of 30 seconds per well. Competition binding data were analyzed by using the LIGAND program (Munson and Rodbard, LIGAND: A versatile, computerized approach for characterization of ligand-binding systems. Anal. Biochem. 107: 220–239, 1980) and assays were performed in triplicate determinations for each point.

T1 sequence (P34969 whole entry): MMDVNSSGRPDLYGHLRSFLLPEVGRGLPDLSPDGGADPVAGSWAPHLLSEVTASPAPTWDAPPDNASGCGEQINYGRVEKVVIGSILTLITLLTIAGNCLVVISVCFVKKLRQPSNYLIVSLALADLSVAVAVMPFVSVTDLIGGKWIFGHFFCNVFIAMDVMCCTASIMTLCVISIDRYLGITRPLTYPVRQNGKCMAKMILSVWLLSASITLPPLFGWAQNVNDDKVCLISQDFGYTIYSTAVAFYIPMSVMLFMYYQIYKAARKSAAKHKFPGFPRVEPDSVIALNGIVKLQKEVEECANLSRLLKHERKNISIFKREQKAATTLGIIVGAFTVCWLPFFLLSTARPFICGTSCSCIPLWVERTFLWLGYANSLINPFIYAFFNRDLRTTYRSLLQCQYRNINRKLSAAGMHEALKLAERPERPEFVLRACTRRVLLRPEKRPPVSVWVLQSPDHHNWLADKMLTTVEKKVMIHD

SMILES	IC50
O=S(=O)(NCCCCN1CCc2ccccc2C1)c1ccc2ccccc2c1 [Compound 2, Naphthalene-2-sulfonic acid [4-(3,4-dihydro-1H-isoquinolin-2-yl)-butyl]-amide hydrochloride]	59.2 nM
O=S(=O)(NCCCCN1CCc2ccccc2C1)c1cc(F)ccc1F [Compound 140, N-[4-(3,4-Dihydro-1H-isoquinolin-2-yl)-butyl]-2,5-difluoro-benzenesulfonamidehydrochloride]	60.8 nM
O=S(=O)(NCCCCN1CCc2ccccc2C1)c1cc(F)c(F)cc1F [Compound 142, N-[4-(3,4-Dihydro-1H-isoquinolin-2-yl)-butyl]-2,4,5-trifluoro-benzenesulfonamidehydrochloride]	80.4 nM
O=S(=O)(NCCCCN1CCc2ccccc2C1)c1c(F)cc(F)cc1Br [Compound 160, 2-Bromo-N-[4-(3,4-dihydro-1H-isoquinolin-2-yl)-butyl]-4,6-difluoro-benzenesulfonamidehydrochloride]	74.4 nM
COc1cc2c(cc1OC)CN(CCCCNS(=O)(=O)c1cc(C)c(Cl)cc1C)CC2 [Compound 220, 4-Chloro-N-[4-(6,7-dimethoxy-3,4-dihydro-1H-isoquinolin-2-yl)-butyl]-2,5-dimethyl-benzenesulfonamidehydrochloride]	67.4 nM
COc1ccc(OC)c(S(=O)(=O)NCCCCN2CCc3cc(OC)c(OC)cc3C2)c1 [Compound 235, N-[4-(6,7-Dimethoxy-3,4-dihydro-1H-isoquinolin-2-yl)-butyl]-2,5-dimethoxy-benzenesulfonamidehydrochloride]	68.4 nM

The next molecules have a lower IC50 than those just listed; values first:

IC50	SMILES
33.2 nM	O=S(=O)(NCCCCN1CCc2ccccc2C1)c1ccccc1 [Compound 5, N-[4-(3,4-Dihydro-1H-isoquinolin-2-yl)-butyl]-benzenesulfonamidehydrochloride]
31.1 nM	COc1cc2c(cc1OC)CN(CCCCNS(=O)(=O)c1cc(Cl)c(F)cc1F)CC2 [Compound 116, 5-Chloro-N-[4-(6,7-dimethoxy-3,4-dihydro-1H-isoquinolin-2-yl)-butyl]-2,4-difluoro-benzenesulfonamide]
39.2 nM	COc1cc2c(cc1OC)CN(CCCCNS(=O)(=O)c1ccccc1Cl)CC2 [Compound 118, 2-Chloro-N-[4-(6,7-dimethoxy-3,4-dihydro-1H-isoquinolin-2-yl)-butyl]-benzenesulfonamidehydrochloride]
39 nM	COc1cc2c(cc1OC)CN(CCCCNS(=O)(=O)c1cc(F)c(F)cc1Cl)CC2 [Compound 151, 2-Chloro-N-[4-(6,7-dimethoxy-3,4-dihydro-1H-isoquinolin-2-yl)-butyl]-4,5-difluoro-benzenesulfonamidehydrochloride]
37.3 nM	COc1cc2c(cc1OC)CN(CCCCNS(=O)(=O)c1cccc(C)c1)CC2 [Compound 210, N-[4-(6,7-Dimethoxy-3,4-dihydro-1H-isoquinolin-2-yl)-butyl]-3-methyl-benzenesulfonamidehydrochloride]
57.2 nM	COc1cc2c(cc1OC)CN(CCCCNS(=O)(=O)c1ccccc1Br)CC2 [Compound 257, 2-Bromo-N-[4-(6,7-dimethoxy-3,4-dihydro-1H-isoquinolin-2-yl)-butyl]-benzenesulfonamidehydrochloride]
